# Laboratory results as given in patent US20240059698A1 (Accutar Biotechnology Inc., priority 2022, published 2024).
# What was measured:
# [1] = test system: HCC827-SVD cells (human EGFR exon 20 insertion mutant D770_N771insSVD); assay: Cell growth inhibition (CellTiter-Glo), HCC827-SVD; assay type: cell-based; details: 72 h, 3 days
# Method: (§1) Generation of HCC827-SVD, HCC827-ASV, and HCC827-YVMA cell lines. The HCC827-SVD cell line was generated by first transducing HCC827 cells (ATCC) with lentiviral particles expressing codon-optimized human EGFR exon 20 insertion mutant D770_N771insSVD, and then selecting under 5 µg/mL puromycin treatment for a week. The resulting cells were further transduced with lentiviral particles carrying EGFR sgRNA and CAS9 to knockout the endogenous alleles of EGER and then selected under 500 µg/mL hygromycin B treatment for two weeks. The limiting dilution approach was used to subsequently generate the single clone of the HCC827-SVD stable cell line. Endogenous EGFR knockout was confirmed by Sanger sequencing of cell genomic DNA, and expression of exogenous mutant EGFR was verified by Western blot analysis.
# (§2) 2. Cell Growth Inhibition for HCC827, HCC827-SVD, HCC827-ASV, HCC827-YVMA, and A431.
# (§3) HCC827(ATCC), HCC827-SVD, HCC827-ASV, and HCC827-YVMA cells were seeded in 96-well plates at 5000 cells/well in 90 μL of RPMI growth medium containing 10% FBS and 1% Penicillin Streptomycin. A431 (ATCC) cells were seeded in 96-well plates at 5000 cells/well in 90 μL of DMEM growth medium containing 10% FBS and 1% Penicillin Streptomycin. Cells were incubated at 37° C. overnight and then administered with 10 μL 10× test compounds prepared in the growth medium at various concentrations. After administration of the compounds, cells were incubated at 37° C. for 3 days. Before the CellTiter-Glo assay, the plates were equilibrated at room temperature for approximately 30 minutes. 100 ul of CellTiter-Glo reagent (Promega) was added to each well. The plates were then incubated at room temperature for 10 minutes and luminescence was recorded by the EnSight® multimode plate reader (PerkinElmer). Table 7 listed selected compounds in cellular growth assay.
# [2] = test system: HCC827-YVMA cells (human ERBB2 exon20 insertion mutant A775_G776ins YVMA); assay: Cell growth inhibition (CellTiter-Glo), HCC827-YVMA; assay type: cell-based; details: 72 h, HCC827-YVMA cells, 3 days, CellTiter-Glo, read-out: Cell growth inhibition, GI50 (nM) HCC827-YVMA
# Method: as §1
# HCC827-ASV and HCC827-YVMA cell lines were generated in a similar approach as HCC827-SVD, except that HCC827 cells (ATCC) were first transduced with lentiviral particles expressing codon-optimized human EGFR exon 20 insertion mutant V769_D770insASV and human ERBB2 exon20 insertion mutant A775_G776ins YVMA, respectively.
# as §2, §3
GI50 [1] [nM],GI50 [2] [nM],Compound
200 to 1000,200 to 1000,"C=CC(=O)N1CCC(c2c[nH]c3ncnc(Nc4ccc(Oc5ccnc(NC6(C)CC6)c5)cc4F)c23)CC1 [Compound 56, 1-(4-(4-((2-fluoro-4-((2-((1-methylcyclopropyl)amino)pyridin-4-yl)oxy)phenyl)amino)-7H-pyrrolo[2,3-d]pyrimidin-5-yl)piperidin-1-yl)prop-2-en-1-one]"
200 to 1000,200 to 1000,"C=CC(=O)N1CCC(c2c[nH]c3ncnc(Nc4ccc(Oc5ccnc(N6CCC(C)(F)C6)c5)cc4F)c23)CC1 (centres unmarked) [Compound 57, 1-[4-[4-[2-fluoro-4-[[2-(3-fluoro-3-methyl-pyrrolidin-1-yl)-4-pyridyl]oxy]anilino]-7H-pyrrolo[2,3-d]pyrimidin-5-yl]-1-piperidyl]prop-2-en-1-one]"
200 to 1000,50 to 200,"C=CC(=O)N1CCC(c2c[nH]c3ncnc(Nc4ccc(Oc5ccnc(NCC(F)(F)F)c5)cc4F)c23)CC1 [Compound 58, 1-(4-(4-((2-fluoro-4-((2-((2,2,2-trifluoroethyl)amino)pyridin-4-yl)oxy)phenyl)amino)-7H-pyrrolo[2,3-d]pyrimidin-5-yl)piperidin-1-yl)prop-2-en-1-one]"
> 1000,50 to 200,"C=CC(=O)N1CCC(c2c[nH]c3ncnc(Nc4ccc(Oc5ccnc(Nc6ncc[nH]6)c5)cc4F)c23)CC1 [Compound 59, 1-(4-(4-((4-((2-((1H-imidazol-2-yl)amino)pyridin-4-yl)oxy)-2-fluorophenyl)amino)-7H-pyrrolo[2,3-d]pyrimidin-5-yl)piperidin-1-yl)prop-2-en-1-one]"
50 to 200,200 to 1000,"C=CC(=O)N1CCC(c2c[nH]c3ncnc(Nc4ccc(OCc5cnn6c5CCCC6)c(Cl)c4)c23)CC1 [Compound 60, 1-(4-(4-((3-chloro-4-((4,5,6,7-tetrahydropyrazolo[1,5-a]pyridin-3-yl)methoxy)phenyl)amino)-7H-pyrrolo[2,3-d]pyrimidin-5-yl)piperidin-1-yl)prop-2-en-1-one]"
> 1000,200 to 1000,"C=CC(=O)N1CCC(c2c[nH]c3ncnc(Nc4ccc(Oc5ccnc(-n6cc(F)cn6)c5)cc4F)c23)CC1 [Compound 61, 1-(4-(4-((2-fluoro-4-((2-(4-fluoro-1H-pyrazol-1-yl)pyridin-4-yl)oxy)phenyl)amino)-7H-pyrrolo[2,3-d]pyrimidin-5-yl)piperidin-1-yl)prop-2-en-1-one]"
200 to 1000,50 to 200,"C=CC(=O)N1CCC(c2c[nH]c3ncnc(Nc4ccc(OCc5nc(CNc6ncn(C)n6)cs5)c(Cl)c4)c23)CC1 [Compound 62, 1-(4-(4-((3-chloro-4-((4-(((1-methyl-1H-1,2,4-triazol-3-yl)amino)methyl)thiazol-2-yl)methoxy)phenyl)amino)-7H-pyrrolo[2,3-d]pyrimidin-5-yl)piperidin-1-yl)prop-2-en-1-one]"
200 to 1000,200 to 1000,"C=CC(=O)N1CCC(c2c[nH]c3ncnc(Nc4ccc(Oc5ccnc(N6C[C@H]7CCC[C@H]7C6)c5)cc4F)c23)CC1 [Compound 63, 1-(4-(4-((2-fluoro-4-((2-((3aR,6aS)-hexahydrocyclopenta[c]pyrrol-2(1H)-yl)pyridin-4-yl)oxy)phenyl)amino)-7H-pyrrolo[2,3-d]pyrimidin-5-yl)piperidin-1-yl)prop-2-en-1-one]"
> 1000,200 to 1000,"C=CC(=O)N1CCC(c2c[nH]c3ncnc(Nc4ccc(Oc5ccnc(C6CCOCC6)c5)cc4F)c23)CC1 [Compound 64, 1-(4-(4-((2-fluoro-4-((2-(tetrahydro-2H-pyran-4-yl)pyridin-4-yl)oxy)phenyl)amino)-7H-pyrrolo[2,3-d]pyrimidin-5-yl)piperidin-1-yl)prop-2-en-1-one]"
200 to 1000,200 to 1000,"C=CC(=O)N1CCC(c2c[nH]c3ncnc(Nc4ccc(Oc5ccnc(Nc6cccnc6)c5)cc4F)c23)CC1 [Compound 65, 1-(4-(4-((2-fluoro-4-((2-(pyridin-3-ylamino)pyridin-4-yl)oxy)phenyl)amino)-7H-pyrrolo[2,3-d]pyrimidin-5-yl)piperidin-1-yl)prop-2-en-1-one]"
200 to 1000,50 to 200,"C=CC(=O)N1CCC(c2c[nH]c3ncnc(Nc4ccc(Oc5ccnc(-c6ccn(C)n6)c5)cc4F)c23)CC1 [Compound 66, 1-(4-(4-((2-fluoro-4-((2-(1-methyl-1H-pyrazol-3-yl)pyridin-4-yl)oxy)phenyl)amino)-7H-pyrrolo[2,3-d]pyrimidin-5-yl)piperidin-1-yl)prop-2-en-1-one]"
200 to 1000,200 to 1000,"C=CC(=O)N1CCC(c2c[nH]c3ncnc(Nc4ccc(OCc5nnc[nH]5)c(Cl)c4)c23)CC1 [Compound 67, 1-(4-(4-((4-((4H-1,2,4-triazol-3-yl)methoxy)-3-chlorophenyl)amino)-7H-pyrrolo[2,3-d]pyrimidin-5-yl)piperidin-1-yl)prop-2-en-1-one]"
< 50,< 50,"C=CC(=O)N1CCC(c2c[nH]c3ncnc(Nc4ccc(OCc5cnc6n5CCCC6)c(Cl)c4)c23)CC1 [Compound 68, 1-(4-(4-((3-chloro-4-((5,6,7,8-tetrahydroimidazo[1,2-a]pyridin-3-yl)methoxy)phenyl)amino)-7H-pyrrolo[2,3-d]pyrimidin-5-yl)piperidin-1-yl)prop-2-en-1-one]"
< 50,< 50,"C=CC(=O)N1CCC(c2c[nH]c3ncnc(Nc4ccc(CNc5ccccn5)cc4F)c23)CC1 [Compound 69, 1-(4-(4-((2-fluoro-4-((pyridin-2-ylamino)methyl)phenyl)amino)-7H-pyrrolo[2,3-d]pyrimidin-5-yl)piperidin-1-yl)prop-2-en-1-one]"
< 50,50 to 200,"C=CC(=O)N1CCC(c2c[nH]c3ncnc(Nc4ccc(C(=O)Nc5ccccn5)cc4F)c23)CC1 [Compound 70, 4-((5-(1-acryloylpiperidin-4-yl)-7H-pyrrolo[2,3-d]pyrimidin-4-yl)amino)-3-fluoro-N-(pyridin-2-yl)benzamide]"
< 50,< 50,"C=CC(=O)N1CCC(c2c[nH]c3ncnc(Nc4ccc(OCc5cnccc5OC)c(Cl)c4)c23)CC1 [Compound 71, 1-(4-(4-((3-chloro-4-((4-methoxypyridin-3-yl)methoxy)phenyl)amino)-7H-pyrrolo[2,3-d]pyrimidin-5-yl)piperidin-1-yl)prop-2-en-1-one]"
200 to 1000,50 to 200,"C=CC(=O)N1CCC(c2c[nH]c3ncnc(Nc4ccc(Oc5ccnc(Nc6nccs6)c5)cc4F)c23)CC1 [Compound 72, 1-(4-(4-((2-fluoro-4-((2-(thiazol-2-ylamino)pyridin-4-yl)oxy)phenyl)amino)-7H-pyrrolo[2,3-d]pyrimidin-5-yl)piperidin-1-yl)prop-2-en-1-one]"
< 50,< 50,"C=CC(=O)N1CCC(c2c[nH]c3ncnc(Nc4ccc(OCc5ccc6cc[nH]c6n5)c(Cl)c4)c23)CC1 [Compound 73, 1-(4-(4-((4-((1H-pyrrolo[2,3-b]pyridin-6-yl)methoxy)-3-chlorophenyl)amino)-7H-pyrrolo[2,3-d]pyrimidin-5-yl)piperidin-1-yl)prop-2-en-1-one]"
< 50,< 50,"C=CC(=O)N1CCC(c2c(-c3ccc(N4CCN(C)CC4)cc3)[nH]c3ncnc(Nc4ccc(OCc5ccccn5)c(Cl)c4)c23)CC1 [Compound 74, 1-(4-(4-((3-chloro-4-(pyridin-2-ylmethoxy)phenyl)amino)-6-(4-(4-methylpiperazin-1-yl)phenyl)-7H-pyrrolo[2,3-d]pyrimidin-5-yl)piperidin-1-yl)prop-2-en-1-one]"
